In patent US20250204541A1, “GAS PHASE TREATMENT OF PRODUCE” (priority 2022, published 2025):
Entries after “also recorded” stand apart in the source; their conditions may differ.

Experiments:
[1] = test system: avocados; format: in vivo
Protocol: Example 11. The ripening characteristics of avocados exposed to AITC vapor was analyzed. Treatment groups consisted of avocados that were: exposed to the vapor of 125 μL of AITC in a Petri dish for 30 min and 18 hours; exposed to the vapor of 500 μL of AITC for 30 minutes and 18 hours; untreated and kept 18 hours in a bin; and treated with a coating agent. Two sets of the preceding test groups were studied. One set was treated when cold along with coated fruit (i.e., fruit treated with a coating agent (95 wt % glyceryl monostearate and 5 wt % sodium stearate) and another set was treated when warm (one day out of cold storage). Daily measurements were made of respiration and firmness (using a durometer). At the start of the test, the avocados were placed in cold storage. After one day, the cold treated avocados were treated with AITC directly after removal from cold storage. The coated group was treated at this time. The warm treated avocados were allowed to warm to room temperature. On the second day, measurements were begun on the cold treated avocados and AITC treatments began on the warm treated samples. On the third day, measurements began on the warm treated groups. […]
Example 23: The ripening characteristics of avocados exposed to AITC vapor, a coating agent (95 wt % glyceryl monostearate and 5 wt % sodium stearate), and AITC plus the coating agent was analyzed. […]

[2] = test system: mandarins; assay: Visible appearance of vapor-treated mandarins; format: in vivo; settings: 72 hours vapor of 3 mL in a Petri dish
Protocol: Example 1. The antifungal activity of diallyl disulfide (DADS) vapor against Penicillium digitatum (Pd) was tested in mandarins. All samples were wounded by puncturing with a screw and infected by dispensing 1000 Pd spores suspended in 10 μL of water into each wound. The test groups consisted of mandarins that were: untreated; dipped in a solution of 1 g/L of imazalil; and exposed for 72 hours to the vapor of 3 mL of DADS in a Petri dish.
Example 2. The antifungal activity of allyl isothiocyanate (AITC) and DADS vapor was tested against Pd and Penicillium italicum (Pi) in mandarins. All samples were wounded by puncturing with a screw. Mandarins were infected by dispensing either 1000 Pd spores or 1000 Pi spores suspended in 10 μL into the wound. The test groups consisted of mandarins that were: uninfected and untreated; uninfected and treated by dipping in a solution of 1 g/L of imazalil; infected with Pd and untreated; infected with Pd and exposed to AITC; infected with Pd and exposed to DADS; infected with Pi and untreated; infected with Pi and exposed to AITC; and infected with Pi and exposed to DADS. Exposure to AITC or DADS consisted of exposing the mandarins for 72 hours to the vapor of 3 mL of the respective compound dispensed in a Petri dish. […]
Example 5. […] The test groups were then left at ambient temperature, high humidity, and assessed for Pd mold after 6 days. […]

Structure (SMILES)	quality and defects of treated avocados ([1]; Example 23, avocados, vapor of 500 μL, 11 days of incubation)	effect on avocado peel and firmness ([1]; in vivo)	visible appearance of treated fruit [2]
C=CCN=C=S [AITC, allyl isothiocyanate]	higher quality and had fewer defects than the untreated avocados and the avocados treated with the coating agent alone	darkening and thickening of the avocado peel and a prolonged feeling a firmness	
C=CCSSCC=C [DADS, diallyl disulfide]			no visible degradation or discoloration; also recorded: No difference in appearance
